Literature values as cited in patent US20090030403A1, “Methods and Systems for Attenuating the Tolerance Response to a Drug” (priority 2007, published 2009).
Like-named read-outs stand apart in the source and are kept apart here.

What was measured:
[1] = test system: maximal electroshock seizures; conditions: compared with ethosuximide
[2] = not given; remark: listed apart in the source
[3] = not given; remark: listed apart in the source
[4] = not given; remark: listed apart in the source
[5] = test system: cultured mouse spinal cord neurons; conditions: 10-30 μg/mL
[6] = test system: GABA/benzodiazepine receptor ionophore complex; conditions: in vitro
[7] = test system: dopaminergic and serotonergic neurotransmission; conditions: in vivo microdialysis
T-type Ca^2+ currents = conditions: in vitro
rat hippocampal slices = conditions: 10-30 μg/mL
sodium channels = conditions: in vitro
partial seizures = conditions: adjunctive therapy, partial seizures in adults
[8] = system removing the drug or its metabolites
[9] = system responsible for the drug's metabolism

## CC(=O)Nc1nnc(S(N)(=O)=O)s1 [Acetazolamide]
In vivo
  Half life: 3 to 9 h

## CN1C(=O)CC(=O)N(c2ccccc2)c2cc(Cl)ccc21 [Clobazam]
In vivo
  Half life: 18 h
[8]
  Excretion: Renal
[9]
  Metabolism: Hepatic

## O=C1CN=C(c2ccccc2Cl)c2cc([N+](=O)[O-])ccc2N1 [Clonazepam]
In vivo
  Bioavailability: 0.9
  Excretion: Renal
  Half life: 30 to 40 h
  Metabolism: Hepatic CYP3A4

## O=C(O)C1N=C(c2ccccc2)c2cc(Cl)ccc2NC1=O (centres unmarked) [Clorazepate]
In vivo
  Bioavailability: 0.91
  Half life: 36 to 100 h
[8]
  Excretion: Renal
[9]
  Metabolism: Hepatic

## CC[C@@H](C(N)=O)N1CCCC1=O [Levetiracetam, α-ethyl-2-oxo-1-pyrrolidineacetamide]
In vivo
  Half life: 6 to 8 h
[8]
  Excretion: Renal
[9]
  Metabolism: Renal

## CCN1C(=O)NC(c2ccccc2)C1=O (centres unmarked) [Ethotoin]
In vivo
  Half life: 3 to 9 h

## CN1C(=O)CC(c2ccccc2)C1=O (centres unmarked) [Phensuximide]
[1]
  Activity against maximal electroshock seizures: more active against maximal electroshock seizures

## Cc1ccsc1C(=CCCN1CCC[C@@H](C(=O)O)C1)c1sccc1C [Tiagabine]
In vivo
  Half life: 7 to 9 h
[8]
  Excretion: Fecal and renal
[9]
  Metabolism: Hepatic (CYP450 system)

## CCC1(c2ccccc2)C(=O)NC(=O)NC1=O [Phenobarbital]
[2]; adults, per daily dose of 1 mg/kg
  Plasma concentration during long term therapy: about 10 μg/ml
In vivo
  Bioavailability: >95%
  Excretion: Renal and fecal
  Half life: 53 to 118 h

## CCC1(c2ccccc2)C(=O)NCNC1=O [Primidone]
[2]; per daily dose of 1 mg/kg
  Plasma concentration of the drug during long term therapy: about 1 μg/ml
In vivo
  Bioavailability: >90%
  Half life: Primidone: 5-15 hours,
[8]
  Excretion: Renal
[9]
  Metabolism: Hepatic

## Cc1ncc2n1-c1ccc(Cl)cc1C(c1ccccc1F)=NC2 [Midazolam]
[3]; Buccal
  Time to Clinical Onset: 5 to 8 min
[3]; Intramuscular
  Time to Clinical Onset: 1 to 5 min
[3]; Intravenous
  Time to Clinical Onset: 1 to 5 min
In vivo
  Excretion: Renal
  Half life: 1.8 to 6.4 h
  Metabolism: Hepatic
In vivo, im
  Bioavailability: I.M. 90%+
In vivo, po
  Bioavailability: Oral ~36%

## NC(=O)OCC(COC(N)=O)c1ccccc1 [Felbamate]
In vivo
  Bioavailability: >90%
  Half life: 20 to 23 h
[9]
  Metabolism: Hepatic

## Nc1nnc(-c2cccc(Cl)c2Cl)c(N)n1 [Lamotrigine]
Healthy adults
  Half life: 24 to 34 h (healthy adults)
[8]
  Excretion: Renal
[9]
  Metabolism: Hepatic

## CCC1(C)CC(=O)NC1=O (centres unmarked) [Ethosuximide]
[2]; per daily dose of 1 mg/kg
  Plasma concentration of the drug during long term therapy: about 2 μg/ml
In vivo
  Bioavailability: 93%[1]
  Half life: 53 h
[8]
  Excretion: Renal (20%)
[9]
  Metabolism: Hepatic (CYP3A4, CYP2E1)

## NC(=O)CCC/N=C(\c1ccc(Cl)cc1)c1cc(F)ccc1O [Progabide]
In vivo
  Bioavailability: 0.6
  Half life: 4 h
[8]
  Excretion: Renal
[9]
  Metabolism: Hepatic

## CCC1(c2ccccc2)NC(=O)N(C)C1=O (centres unmarked) [Mephenytoin]
In vivo
  Half life: 7 h

## CCC(C)C(CC)C(N)=O (centres unmarked) [Valnoctamide]
In vivo
  Bioavailability: 94%[1]
  Half life: 10 h
[9]
  Metabolism: Hepatic

## O=C1NC(=O)C(c2ccccc2)(c2ccccc2)N1 [Phenytoin, Diphenylhydantoin]
[2]; in vivo
  Concentration at which toxic effects such as nystagmus develop: around 20 μg/ml
  Therapeutic (plasma) concentration for control of seizures: above 10 μg/ml
In vivo
  Half life: 22 h
oral
  Bioavailability: 70-100%
Rectal and intravenous administration
  Bioavailability: 24.4%
[8]
  Excretion: Primarily through the bile
[9]
  Metabolism: hepatic

## NC(=O)N1c2ccccc2C=Cc2ccccc21 [Carbamazepine]
In urine where stated
  Excreted unchanged: 2-3% excreted unchanged in urine
In vivo
  Half life: 25 to 65 h
[9]
  Metabolism: hepatic CYP3A4 to active epoxide form

## CCCC(C)(COC(N)=O)COC(N)=O [Meprobamate]
In vivo
  Half life: 10 h
[8]
  Excretion: Renal
[9]
  Metabolism: Hepatic

## NC(=O)N1c2ccccc2CC(=O)c2ccccc21 [Oxcarbazepine]
Healthy adults
  Half life: 1 to 5 h (healthy adults)
In vivo
  Bioavailability: >95%

## CN1C(=O)CN=C(c2ccccc2)c2cc(Cl)ccc21 [Diazepam]
[3]; Rectal
  Time to Clinical Onset: 5 to 15 min

## CC(C)C[C@H](CN)CC(=O)O [Pregabalin]
In vivo
  Bioavailability: ≧90%
  Half life: 5 to 6.5 h
[8]
  Excretion: Renal
[9]
  Metabolism: Negligible

## O=C1NC(c2ccccc2)(c2ccccc2)C(=O)N1COP(=O)(O)O [Fosphenytoin]
To convert to phenytoin
  Half life: 15 minutes to convert to phenytoin

## CC1(C)O[C@@H]2[C@@H](CO[C@@]3(COS(N)(=O)=O)OC(C)(C)O[C@@H]23)O1 [Topiramate, 2,3:4,5-bis-O-(1-methylethylidene)-beta-D-fructopyranose sulfamate]
In vivo
  Half life: 19 to 23 h
  Metabolism, hepatic share: 30%

## NC(=O)NC(=O)Cc1ccccc1 [Phenacemide]
In vivo
  Half life: 22 to 25 h

## CN1C(=O)CC(C)(c2ccccc2)C1=O (centres unmarked) [Mesuximide]
[1]
  Activity against maximal electroshock seizures: more active against maximal electroshock seizures
Active metabolite
  Half life: 28 to 38 h (active metabolite)
In vivo
  Half life: 1.4 to 2.6 h (mesuximide)
[8]
  Excretion: Renal
[9]
  Metabolism: Hepatic (demethylation and glucuronidation)

## CCC1(C)OC(=O)N(C)C1=O (centres unmarked) [Paramethadione]
[4]
  Protein binding (in words): Not significant

## O=C1CN=C(c2ccccc2)c2cc([N+](=O)[O-])ccc2N1 [Nitrazepam]
In vivo
  Excretion: Renal
  Half life: 20 to 40 h
[9]
  Metabolism: Hepatic

## NS(=O)(=O)Cc1noc2ccccc12 [Zonisamide, 1,2-benzisoxazole-3-methanesulfonamide]
Carbonic anhydrase
  Carbonic anhydrase inhibiting activity: weak
[5]
  Synaptically-driven electrical activity: suppresses synaptically-driven electrical activity
[5]; cultured mouse spinal cord neurons
  Postsynaptic GABA or glutamate responses: without affecting
[6]
  Binding to GABA/benzodiazepine receptor ionophore complex: binds to the GABA/benzodiazepine receptor ionophore complex in an allosteric fashion
  Chloride flux: does not produce changes in chloride flux
[7]
  Dopaminergic and serotonergic neurotransmission: facilitates both dopaminergic and serotonergic neurotransmission
T-type Ca^2+ currents
  Effect on T-type Ca2+ currents: reduces voltage-dependent, transient inward currents
Rat hippocampal slices
  Neuronal or glial uptake of [3H]-GABA: without affecting
In red blood cells
  Half life: 105 h
[8]
  Excretion: Renal
[9]
  Metabolism: Hepatic
Sodium channels
  Effect on sodium channels: blocks sodium channels
Partial seizures
  Effective doses in controlled trials: 100 to 600 mg/day

## NCC1(CC(=O)O)CCCCC1 [Gabapentin]
In vivo
  Bioavailability: 60% for 0.9 g daily to 27% for 4.8 g daily dose
  Bioavailability (absorption in words): Rapid, in part by saturable carrier-mediated L-
  Excretion: Renal
  Food increases absorption by: Food increases absorption by 14%
  Half life: 5 to 7 h
[9]
  Metabolism: not appreciably metabolized

## CCOc1ccc2nc(S(N)(=O)=O)sc2c1 [Ethoxzolamide]
[4]
  Protein binding: ~89%
In vivo
  Half life: 2.5 to 5.5 h

## NS(=O)(=O)c1ccc(N2CCCCS2(=O)=O)cc1 [Sultiame]
In vivo
  Half life: 24 hour hours
oral
  Bioavailability: 100% (oral)
[8]
  Excretion: Fecal (10%) and renal (90%)
[9]
  Metabolism: Hepatic secretion

## O=C1Nc2ccc(Cl)cc2C(c2ccccc2Cl)=NC1O (centres unmarked) [Lorazepam]
In vivo
  Half life: 10 to 20 h
[8]
  Excretion: Renal
[9]
  Metabolism: Hepatic

## C=CC(N)CCC(=O)O (centres unmarked) [Vigabatrin]
In vivo
  Bioavailability: 80-90%
[8]
  Excretion: Renal
[9]
  Metabolism: Almost no metabolic transformation occurs
The elderly
  Half life: 12 to 13 h
Young adults
  Half life: 5 to 8 h
